Results on 3 compounds are retold here after patent US20160053120A1, “AZO DYE USED FOR A COLOR FILTER OF A LCD” (DOW GLOBAL TECHNOLOGIES LLC, priority 2013, published 2016).

Series [1] is described as follows: Thermal stability of polymer film (ΔEab before and after hard baking at 200° C. for 1 hour). Format: physicochemical. The settings on record: dye in acrylic resin film, baked at 200° C. under air for 1 hour; smaller ΔEab = better heat resistance. The method, then: The obtained dry film was baked at 200° C. under air for 1 hour to evaluate heat resistance. Optical performance measured by the difference between chromaticity coordinates of before and after baking (ΔEab value) was 4.9. A smaller ΔEab value indicates better heat resistance.
The wet films after spin coating are dried in oven at 80° C. for 30 minutes and then soft baked at 150° C. for 15 minutes. The chromaticity coordinates (L, a, b) are recorded with UltraScan Pro (Hunterlab) colorimeter. D65 light source is used and results are based on CIE Lab coordinates. After that the films are hard baked at target temperature (200° C.) for lhour and the new chromaticity coordinates (L′, a′, b′) are recorded with the method above. The thermal stability is indicated by the difference of chromaticity coordinate before and after hard baking represented by the following formula;
ΔE=√{square root over ((L−L′^2+(a−a′)^2+(b−b′)^2)}{square root over ((L−L′^2+(a−a′)^2+(b−b′)^2)}.

Series [2] is described as follows: Solubility in cyclohexanone at 25° C. The class given is physicochemical.

Each structure is given as a SMILES string.

For `CC1=NN(c2ccccc2)C(=O)C1/N=N/c1ccccc1` (stereo not drawn) [Example 2, C.I. solvent yellow 16], in series [1], the “Thermal stability at 200° C. (ΔEab)” value is 43. For the same compound, the “Solubility in cyclohexanone at 25° C. (wt %)” value in series [2] amounted to 6.4 wt %.
As to `Cc1ccccc1/N=N/c1ccc(/N=N/c2c(O)ccc3ccccc23)c(C)c1` [Example 3, C.I. solvent red 24], the “Thermal stability at 200° C. (ΔEab)” value in series [1] turned out to be 15. The “Solubility in cyclohexanone at 25° C. (wt %)” value in series [2] is listed as 4.3 wt %.
For `Oc1ccc2ccccc2c1/N=N/c1ccccc1` [Example 4, C.I. solvent yellow 14] the same measures were 64 and 6.4 wt %.
